Measured values: patent US20030111088A1, “Device and method for treating combination dependencies” (Addiction Therapies, Inc., priority 2001, published 2003)
Like-named read-outs stand apart in the source and are kept apart here.

Experiments:
[1] = several clinical studies; cited from earlier work
[2] = From the text: (§1) On day one, following overnight abstinence from smoking, healthy adult smokers who wish to give up smoking receive a single dose of nicotine or placebo. Smokers are assigned to each dosage group in a double blind, randomized manner, as is well known in the art. The following data are collected before dosing, every thirty minutes for the first two hours after dosing, and every hour for the following six hours: plasma levels of nicotine and cotinine, vital signs, adverse events, and patient's assessment of cigarette cravings. Baseline and endpoint clinical chemistry, hematology, urinalysis, and ECG are also monitored.
On day eight, again following overnight abstinence from smoking, the same subjects receive the same dose of nicotine or placebo. The dose is repeated periodically throughout the day. The following data are collected as described above before the first dosing and one hour after each dose is administered: plasma levels of nicotine and cotinine, vital signs, adverse events, and patient's assessment of cigarette cravings. Baseline and endpoint clinical chemistry, hematology, urinalysis, and ECG are also monitored. The data are used to evaluate the safety and pharmacokinetics of nicotine delivery by the smoking cessation device.
(§2) There were 6 subjects per treatment group. […] Apple juice was used as the beverage for delivering nicotine from the straw-like device.

[3] = for plasma levels of nicotine by dose group: single and repeated dose parts
Procedure: The chamber 10 is a plastic drinking straw. The retainer 18 is a filter at the first end 12 of the straw. The user places the first end 12 of the device in a glass of apple juice and applies oral suction to the second end 14 of the device, such that the juice and nicotine 16 are delivered into the user's mouth.
The nicotine 16 in the device is in the form of coated sugar spheres of nicotine bitartrate having a diameter of approximately 500 micrometers. The nicotine spheres are prepared by spraying nicotine bitartrate dihydrate with a binder onto sugar spheres and applying a film coating. Using a Wurster processing unit, particles are suspended in air using a controlled airflow system and a coating suspension is added at a controlled rate via a pneumatically atomized nozzle. As atomized droplets of the coating solution contact the particles, they spread and coalesce on the particle surface. Excess moisture from the applied liquid evaporates in the apparatus, leaving a coated dry substance. Mixing of the coating suspension occurs throughout the manufacturing process to ensure uniformity of the suspension.
as §1, §2

[4] = in vivo; cited from earlier work

Structure (SMILES): O=C1CC[C@@]2(O)[C@H]3Cc4ccc(O)c5c4[C@@]2(CCN3CC2CC2)[C@H]1O5 [Naltrexone, naltrexone]
- effects on smoking cessation [1]: only small effects

Structure (SMILES): CN1CCCC1c1cccnc1 (centres unmarked) [nicotine]
- tolerability ([2]; 4 mg and 8 mg doses in straw-like delivery device): well tolerated
- nausea and vomiting ([2]; 12 mg dose versus 4 mg and 8 mg): seen only with the 12 mg dose
- adverse events observed ([2]; all nicotine doses): lightheadedness, nausea, and vomiting
- clinical chemistry, hematology, urinalysis or ECG values ([2]; human, in vivo): no clinically significant changes
- vital sign measurements ([2]; human, in vivo): Occasional increases
- craving for cigarettes ([2]; over the repeat dosing session, all subjects receiving nicotine): decreased
- plasma levels of nicotine by dose group ([3]; 4 mg dose group): lowest plasma levels
- plasma levels of nicotine by dose group ([3]; 8 mg and 12 mg dose groups): higher plasma levels
- nicotine levels in most subjects ([3]; 15 minutes after dosing): already increased
- plasma nicotine on repeated dosing ([3]; repeated dosing every 1.5 hours, 10.5 hour sampling period): continuous increases
- plasma levels of nicotine versus marketed nicotine replacement products ([3]; single dose 4 mg, 8 mg or 12 mg, straw-like device, FIG. 3): comparable to or greater than
- kinetics compared with nicotine gum ([3]; straw-like device, FIG. 4): very similar

Structure (SMILES): Oc1ccc2c3c1O[C@H]1[C@H](O)CC[C@@]4(O)[C@@H](C2)N(CC2CC2)CC[C@]314 [6β-naltrexol]
- plasma half-life [4]: 12 h
